Assay results: patent publication US7375088B2, “Polyene polyketides, processes for their production and their use as a pharmaceutical” (Thallion Pharmaceuticals Inc., priority 2003, dated 2008)
Converted amounts (≈) assume the structure as drawn. Read-outs that look alike come from different tables or passages of the source.

Assays:
[1] = test system: 60 different human tumor cell lines; experiment: NCI in vitro antiproliferative screen, 60 human tumor cell lines (SRB, GI50); type: cell-based
Procedure: (§1) In Vitro antipoliferative study of Compound 2a was performed by the National Cancer Institute (National Institutes of Health, Bethesda, Md., USA) against a panel of cancer cell lines in order to determine the concentrations needed to obtain a 50% inhibition of cell proliferation (IC50). The operation of this unique screen utilizes 60 different human tumor cell lines, representing leukemia, melanoma, and cancers of the lung, colon, brain, ovary, breast prostate and kidney. Compound 2(a) was provided as a lyophilized powder with an estimated purity of 90+%. The compound was stored at −20° C. until day of use.
(§2) The human tumor cell lines of the cancer-screening panel were grown in RPMI 1640 medium containing 5% fetal bovine serum and 2 mM L-glutamine. For a typical screening experiment, cells were inoculated into 96 well microtiter plates in 100 μl at plating densities ranging from 5000 to 40,000 cells/well depending on the doubling time of individual cell lines (Table 8). After cell inoculation, the microtiter plates were incubated at 37° C., under 5% CO2, 95% air and 100% relative humidity for 24 hours prior to addition of the experimental drugs.
(§3) After 24 hours, two plates of each cell line were fixed in situ with TCA, to represent a measurement of the cell population for each cell line at the time of drug addition (Tz). Compound 2(a) was solubilized in dimethyl sulfoxide at 400-fold the desired final maximum test concentration and stored frozen prior to use. At the time of drug addition, an aliquot of frozen concentrate was thawed and diluted to twice the desired final maximum test concentration with complete medium containing 50 μg/ml gentamicin. Additional four, serial dilutions were made to provide a total of five drug concentrations plus control. Aliquots of 100 μl of these different drug dilutions were added to the appropriate microtiter wells already containing 100 μl of medium, resulting in the required final drug concentrations (2.5×10^−5 M to 2.5×10^−9 M).
(§4) Following drug addition, the plates were incubated for an additional 48 hours at 37° C., 5% CO2, 95% air, and 100% relative humidity. For adherent cells, the assay was terminated by the addition of cold TCA. Cells were fixed in situ by the gentle addition of 50 μl of cold 50% (w/v) TCA (final concentration, 10% TCA) and incubation for 60 minutes at 4° C. The supernatant was discarded, and the plates were washed five times with tap water and air-dried. Sulforhodamine B (SRB) solution (100 μl) at 0.4% (w/v) in 1% acetic acid was added to each well, and plates were incubated for 10 minutes at room temperature. After staining, unbound dye was removed by washing five times with 1% acetic acid and the plates were air-dried. Bound stain was subsequently solubilized with 10 mM trizma base, and the absorbance was read on an automated plate reader at a wavelength of 515 nm. For suspension cells, the methodology was the same except that the assay was terminated by fixing settled cells at the bottom of the wells by gently adding 50 μl of 80% TCA (final concentration, 16% TCA).
(§5) The growth inhibitory power of compound 2(a) was measured by NCl utilizing the GI50 value, rather than the classical IC50 value. The GI50 value emphasizes the correction for the cell count at time zero and, using the seven adsorbance measurements [time zero (Tz), control growth (C), and the test growth in the presence of drug at each of the five concentration levels (Ti)], GI50 is calculated as [(Ti−Tz)/(C−Tz)×100=−50. which is the drug concentration resulting in a 50% reduction in the net protein increase (as measured by SRB staining) in control cells during the drug incubation.

[2] = test system: Aspergillus fumigatus ATCC 204305; experiment: MIC broth microdilution assay
Procedure: (§6) Test compound preparation: The test article was prepared as 100× stock solutions in DMSO, with concentrations ranging from 3.2 mg/ml to 0.0625 mg/ml (a two-fold dilution series over 10 points). The first dilution (3.2 mg/ml) was prepared by resuspending 0.5 mg of each test article in 156.25 μl of DMSO. The stock is then serially diluted by two-fold increments to obtain the desired concentration range.
(§7) Inoculum preparation: For fungal strains, the inoculum was prepared as follows. From an overnight culture in Yeast Media broth, cell density was adjusted in 0.85% saline to 0.5 McFarland. This procedure yielded a stock suspension of about 5×10^6 cells/ml. Following thorough vortexing, a working suspension was prepared by diluting the stock 1:50 in RPMI 1640, and then further diluting it 1:20 with RPMI 1640 to obtain the 2× test inoculum (about 5×10^3 cells/ml). For filamentous fungi, the inoculum was prepared as follows. […]
(§8) 50 μl of the final cell dilution (yeast, filamentous fungi or bacteria) of each indicator strain was added to each corresponding well of the microplate containing 50 μl of diluted drug or media alone. […] MIC readings were determined at 24 and 48 hrs for the Candida and Aspergillus species, and at 48 and 72 hrs for Cryptococcus neoformans. MIC readout for each indicator was determined as the lowest concentration of test compound resulting in total absence of growth.

Candida krusei LSPQ 0309 = experiment: MIC broth microdilution assay; conditions: Pichia kudriavzevii
Procedure: as §6, §7, §8

[3] = test system: Candida lusitaniae ATCC 200953; experiment: MIC broth microdilution assay; conditions: Clavispora lusitaniae
Procedure: as §6, §7, §8

Aspergillus flavus = experiment: Disk diffusion assay (MEC and zone of inhibition); type: cell-based
SN12C/renal carcinoma = experiment: NCI in vitro antiproliferative screen (SRB, GI50); type: cell-based, human
Procedure: as §1, §2, §3, §4, §5

[4] = test system: HOP92/non-small cell lung carcinoma; experiment: NCI in vitro antiproliferative screen (SRB, GI50); type: cell-based, human
Procedure: as §1, §2, §3, §4, §5

[5] = test system: Aspergillus flavus ATCC 204304; experiment: MIC broth microdilution assay
Procedure: as §6, §7, §8

[6] = test system: Saccharomyces cerevisiae ATCC 9763; experiment: MIC broth microdilution assay
Procedure: as §6, §7, §8

CC(C=CCCC=CC=CC=CC=CC(=O)NC1=C(O)CCC1=O)C(O)C(C)C(O)C=CC=CC=CC=CC=CCC(OC1OC(C)C(O)C(O)C1O)C(C)C(=O)CC(O)CC(O)CC(O)C=CCC(O)CC(O)CC(O)CC(O)C=CCC(O)CC(O)CCCN (centres unmarked) [Compound 2(a), 56-Amino-15,17,33,35,37,41,43,45,47,51,53-undecahydroxy-14,16,30-trimethyl-31-oxo-29-(3,4,5-trihydroxy-6-methyl-tetrahydro-pyran-2-yloxy)-hexapentaconta-2,4,6,8,12,18,20,22,24,26,38,48-dodecaenoic acid (2-hydroxy-5-oxo-cyclopent-1-enyl)-amide]
GI50 ([1]; 786-0, 48 h, 786-0, Renal cancer, read-out: GI50): 3.07 µM | GI50 ([1]; 48 h, MDA-MB-, Breast cancer): 3.38 µM | GI50 ([1]; 48 h, PC-3, Prostate cancer, read-out: GI50): 2.66 µM | GI50 ([1]; 48 h, all cell lines of the NCI screening panel, 48 hours drug incubation): < 10 µM | GI50 ([1]; A498, 48 h, A498, Renal cancer, read-out: GI50): 4.82 µM | GI50 ([1]; A549, 48 h, A549/ATCC, Non-small cell lung cancer, read-out: GI50): 4.09 µM | GI50 ([1]; ACHN, 48 h, ACHN, Renal cancer, read-out: GI50): 2.96 µM | GI50 ([1]; BT-549, 48 h, BT-549, Breast cancer, read-out: GI50): 4.59 µM | GI50 ([1]; CAKI-1, 48 h, CAKI-1, Renal cancer, read-out: GI50): 2.99 µM | GI50 ([1]; COLO 205, 48 h, COLO 205, Colon cancer, read-out: GI50): 5 µM | GI50 ([1]; DU-145, 48 h, DU-145, Prostate cancer, read-out: GI50): 3.78 µM | GI50 ([1]; EKVX, 48 h, EKVX, Non-small cell lung cancer, read-out: GI50): 5.87 µM | GI50 ([1]; HCT-15, 48 h, HCT-15, Colon cancer, read-out: GI50): 3.25 µM | GI50 ([1]; HCT-116, 48 h, HCT-116, Colon cancer, read-out: GI50): 4.18 µM | GI50 ([1]; HOP-62, 48 h, HOP-62, Non-small cell lung cancer, read-out: GI50): 6.83 µM | GI50 ([1]; HT-29, 48 h, HT29, Colon cancer, read-out: GI50): 6.36 µM | GI50 ([1]; IGROV-1, 48 h, IGROV1, Ovarian cancer, read-out: GI50): 2.95 µM | GI50 ([1]; K562, 48 h, K-562, Leukemia, read-out: GI50): 9.18 µM | GI50 ([1]; KM12, 48 h, KM12, Colon cancer, read-out: GI50): 2.76 µM | GI50 ([1]; LOX IMVI, 48 h, LOX IMVI, Melanoma, read-out: GI50): 3.73 µM | GI50 ([1]; M14, 48 h, M14, Melanoma, read-out: GI50): 4.15 µM | GI50 ([1]; MCF7, 48 h, MCF7, Breast cancer, read-out: GI50): 4.22 µM | GI50 ([1]; MDA-MB-435, 48 h, MDA-MB-435, Breast cancer, read-out: GI50): 3.26 µM | GI50 ([1]; MOLT-4, 48 h, MOLT-4, Leukemia, read-out: GI50): 5.57 µM | GI50 ([1]; Malme-3M, 48 h, MALME-3M, Melanoma, read-out: GI50): 2.4 µM | GI50 ([1]; NCI-H23, 48 h, NCI-H23, Non-small cell lung cancer, read-out: GI50): 4.25 µM | GI50 ([1]; NCI-H226, 48 h, NCI-H226, Non-small cell lung cancer, read-out: GI50): 3.1 µM | GI50 ([1]; NCI-H322M, Non-small cell lung cancer, 48 h, read-out: GI50): 3.48 µM | GI50 ([1]; NCI-H460, 48 h, NCI-H460, Non-small cell lung cancer, read-out: GI50): 3.83 µM | GI50 ([1]; NCI-H522, 48 h, NCI-H522, Non-small cell lung cancer, read-out: GI50): 2.8 µM | GI50 ([1]; NCI/ADR-RES, 48 h, NCI/ADR-RES, Breast cancer, read-out: GI50): 4.76 µM | GI50 ([1]; OVCAR-3, 48 h, OVCAR-3, Ovarian cancer, read-out: GI50): 3.4 µM | GI50 ([1]; OVCAR-4, 48 h, OVCAR-4, Ovarian cancer, read-out: GI50): 4.48 µM | GI50 ([1]; OVCAR-5, 48 h, OVCAR-5, Ovarian cancer, read-out: GI50): 4 µM | GI50 ([1]; OVCAR-8, 48 h, OVCAR-8, Ovarian cancer, read-out: GI50): 4.34 µM | GI50 ([1]; RXF 393, 48 h, RXF 393, Renal cancer, read-out: GI50): 1.2 µM | GI50 ([1]; SF-268, 48 h, SF-268, CNS cancer, read-out: GI50): 3.64 µM | GI50 ([1]; SF-295, 48 h, SF-295, CNS cancer, read-out: GI50): 3.91 µM | GI50 ([1]; SK-MEL-2, 48 h, SK-MEL-2, Melanoma, read-out: GI50): 4.34 µM | GI50 ([1]; SK-MEL-5, 48 h, SK-MEL-5, Melanoma, read-out: GI50): 4.16 µM | GI50 ([1]; SK-MEL-28, 48 h, SK-MEL-28, Melanoma, read-out: GI50): 6.75 µM | GI50 ([1]; SK-OV-3, 48 h, SK-OV-3, Ovarian cancer, read-out: GI50): 7.94 µM | GI50 ([1]; SNB-19, 48 h, SNB-19, CNS cancer, read-out: GI50): 5.58 µM | GI50 ([1]; SNB-75, 48 h, SNB-75, CNS cancer, read-out: GI50): 3.87 µM | GI50 ([1]; SW-620, 48 h, SW-620, Colon cancer, read-out: GI50): 5.35 µM | GI50 ([1]; T47D, 48 h, T-47D, Breast cancer, read-out: GI50): 6 µM | GI50 ([1]; TK-10, 48 h, TK-10, Renal cancer, read-out: GI50): 3.32 µM | GI50 ([1]; U-251, 48 h, U251, CNS cancer, read-out: GI50): 3.65 µM | GI50 ([1]; UACC-62, 48 h, UACC-62, Melanoma, read-out: GI50): 2.68 µM | GI50 ([1]; UACC-257, 48 h, UACC-257, Melanoma, read-out: GI50): 3.74 µM | GI50 ([1]; UO-31, 48 h, UO-31, Renal cancer, read-out: GI50): 3.65 µM | MIC ([2]; ATCC204305, 24 h): 16 µg/mL (≈ 12.3 µM) | MIC ([2]; ATCC204305, 48 h): 16 µg/mL (≈ 12.3 µM) | MIC (Candida krusei LSPQ 0309; LSPQ0309, 24 h): 8 µg/mL (≈ 6.17 µM) | MIC (Candida krusei LSPQ 0309; LSPQ0309, 48 h): 8 µg/mL (≈ 6.17 µM) | MIC ([3]; ATCC200953, 24 h): 4 µg/mL (≈ 3.08 µM) | MIC ([3]; ATCC200953, 48 h): 4 µg/mL (≈ 3.08 µM) | antifungal activity in disk diffusion assay (Aspergillus flavus): active | ZOI (zone of inhibition of fungal growth calculated for each MEC) (Aspergillus flavus; at the MEC, 24 hours of incubation): 2.7 mm | MEC (minimum effective concentration) (Aspergillus flavus; disk diffusion, 24 hours of incubation): 2.5 µg/mL | GI50 (SN12C/renal carcinoma; Homo sapiens, SN12C, Renal cancer, 48 h): 138 nM | GI50 level (SN12C/renal carcinoma; SN12C/renal carcinoma, 48 hours): nanomolar or picomolar level | GI50 level ([4]; HOP92/non-small cell lung carcinoma, 48 hours): nanomolar or picomolar level | GI50 ([4]; Homo sapiens, HOP-92, Non-small cell lung cancer, 48 h): 97.7 nM | MIC ([5]; ATCC204304, 24 h): 4 µg/mL (≈ 3.08 µM) | MIC ([5]; ATCC204304, 48 h): 8 µg/mL (≈ 6.17 µM) | MIC ([6]; ATCC9763, 24 h): 4 µg/mL (≈ 3.08 µM) | MIC ([6]; ATCC9763, 48 h): 4 µg/mL (≈ 3.08 µM)
